This note sets out measurements from patent US9084769B2, “Compositions comprising non steroidal anti-inflammatory drugs and methods for use thereof” (priority 2011, dated 2015).

Where two headings read alike, the source gives them in different places.

A short description of data set [1]: changes in hemoglobin over seven weeks (HemoCue Hb 201). The note with it: mice followed for seven weeks, blood on days 0, 14, 28, 49; FIG. 3. In kind it is in vivo.
Method: To investigate changes in Hb, mice treated with Epi, Ibu, ZnCar, Nap, Cox, Ibu+Epi, Ibu+ZnCar, and Ibu+Epi+ZnCar were used. A total of 5 mice per group were used. Mice were followed for seven weeks and blood was drawn on days 0, 14, 28, and 49. Hemoglobin was assessed in blood drawn from mice using a HemoCue Hb 201 analyzer. A drop of mouse blood was placed on a HemoCue microcuvette and assessed immediately. Measurements were recorded in millimole per liter.
For data set [2], the system named is Carrageenin-induced hind paw edema. The experiment in a line: Carrageenin-induced hind paw edema. The class given is in vivo, SD rats. The conditions noted are these: oral, specific predetermined doses; plethysmometer, baseline and three hours after induction. How it is done: C57Bl/6 mice and Sprague-Dawley (SD) rats were used. Animals were group-housed under controlled temperature (25° C.) and photoperiods (12:12-hour light-dark cycle), and allowed unrestricted access to standard diet and tap water, unless otherwise noted. Animals were allowed to acclimate to these conditions for at least 7 days before inclusion in experiments. For each group of experiments, animals were matched by age, sex, and body weight. Care and experimentation of mice were performed in accordance with guidelines under protocols approved by the Institutional Animal Care and Use Committee. To evaluate the effects of inflammation, Epi, ZnCar, Ibu, Nap, Cox, Ibu+Epi, Ibu+ZnCl, Ibu+ZnSt, Ibu+ZnCar, Ibu+Epi+ZnCl, and Ibu+Epi+ZnCar were administered in specific predetermined doses. Six rats were used in each group. Carrageenin-induced hind paw edema was established in SD rats using Lambda-carrageenin solution injected so into the right hind paw within the first hour of oral administration of these drugs. The paw volume was estimated using a plethysmometer both at baseline and three hours following induction.
On the technique in general: In the carrageenan paw model, swelling and tenderness develop within hours.

Data set [3] deals with acetylcholine-induced mouse writing model. The experiment in a line: acetylcholine-induced mouse writing model (analgesic effects). In kind it is in vivo, mice. The conditions noted are these: oral, predetermined ED50 dose ranges, 30 min before i.p. acetylcholine; writhes counted for 30 min; FIG. 1. How it is done: C57Bl/6 mice and Sprague-Dawley (SD) rats were used. Animals were group-housed under controlled temperature (25° C.) and photoperiods (12:12-hour light-dark cycle), and allowed unrestricted access to standard diet and tap water, unless otherwise noted. Animals were allowed to acclimate to these conditions for at least 7 days before inclusion in experiments. For each group of experiments, animals were matched by age, sex, and body weight. Care and experimentation of mice were performed in accordance with guidelines under protocols approved by the Institutional Animal Care and Use Committee.
To evaluate the effects of pain, the analgesic effects of Epi, ZnCar, Ibu, Nap, Cox, Ibu+Epi, Ibu+ZnCl, Ibu+ZnSt, Ibu+ZnCar, Ibu+Epi+ZnCl, and Ibu+Epi+ZnCar were tested in acetylcholine-induced (8.3 mg/kg, i.p.) mouse writing model. Seven mice were used in each group and were administered drugs orally at predetermined ED50 dose ranges. Thirty minutes after the oral administration of test drug, mice were provided with an intraperitoneal injection of 5.5 mg/kg acetylcholine bromide. […] The number of writhes was counted for 30 min and percentage nociception was calculated and correlatively compared between the groups.

On to `COc1ccc2cc([C@H](C)C(=O)O)ccc2c1` [Nap, naproxen], for which the “change in systolic blood pressure (in words)” value (“change … (in words)” below) (mouse, in vivo) is on record as “significant elevations in systolic blood pressure”. Further, the change in hemoglobin result in data set [1] is reported as “progressive decrease in hemoglobin”.
As for `Cc1ccc(-c2cc(C(F)(F)F)nn2-c2ccc(S(N)(=O)=O)cc2)cc1` [Cox, celecoxib], the “change … (in words)” value (mice, measured daily, tail-cuff, p<0.05) is given as “significant elevations in systolic blood pressure”. The change in hemoglobin result in data set [1] is reported as “progressive decrease in hemoglobin”.
Consider `CC(C)Cc1ccc(C(C)C(=O)O)cc1` (centres unmarked) [Ibu, ibuprofen], for which, under “mouse, in vivo”, the “change … (in words)” value is on record as “significant elevations in systolic blood pressure” and the “systolic blood pressure (mean)” value amounted to 129.3 mmHg. Moreover, the change in hemoglobin result in data set [1] is “progressive highly significant decrease in hemoglobin”.
Regarding zinc carnosine [ZnCar], the “clinical response, paw volume 3 hours after carrageenin injection” value in data set [2] is given as “did not exhibit therapeutic efficacy in the management of acute inflammation”. In addition, in data set [3], the “antinociceptive response (number of writhes, percentage nociception)” value is on record as “did not exhibit therapeutic efficacy in the management of acute pain”.
For `O=C[C@@H](O)[C@@H](O)[C@H](O[C@@H]1O[C@H](CO)[C@H](O)[C@H](O)[C@H]1O)[C@H](O)CO` [Epi, 4-O-β-galactopyranosyl-d-mannose], in that order: “did not exhibit therapeutic efficacy in the management of acute inflammation” and “did not exhibit therapeutic efficacy in the management of acute pain”.
